Where two headings read alike, the source gives them in different places.
Assays:
Type in all cases: in vivo, Drosophila melanogaster
[1] = tested on: Line 14 (susceptible wildtype control) Drosophila strain; assay: Dosage mortality testing, first instar larvae, Line 14 strain; details: applied to insect diet, Probit analysis
Description: (§1) Dosage mortality testing was conducted on four strains of Drosophila melanogaster. Each of the Drosophila strains tested had at least one lesion in one of the nAChR subunits or was a control strain lacking a lesion. […] The 4A4D Drosophila strain was a double mutant having lesions in both the Dα1 subunit and the Dβ2 subunit. The susceptible Drosophila strain or control Drosophila strain was the wildtype Drosophila strain in which the EMS lesions were generated, and is referred to in Tables 1-4 as the “Line 14” strain.
Screening was performed on first instar larvae with five replicates of fifty larvae per vial at each concentration to determine the susceptibility of each Drosophila strain to the spinosyn composition and to an imidacloprid composition. The spinosyn composition (spinosad) included 85% spinosyn A and 15% spinosyn D in a sugar solution. Stock solutions were typically made 0.1% w/v in acetone and then diluted to lower concentrations. The spinosyn or imidacloprid compositions were then applied to the insect diet, allowed to dry and then infested with the insect larvae. […]

[2] = tested on: Dβ2EMS2 Drosophila strain (lesion in the Dβ2 subunit); assay: Dosage mortality testing, first instar larvae, Dβ2EMS2 strain; details: for Fold resistance: Dβ2EMS2 strain relative to Line 14
Description: as §1
(§2) Screening was performed on first instar larvae with five replicates of fifty larvae per vial at each concentration to determine the susceptibility of each Drosophila strain to the spinosyn composition and to an imidacloprid composition. The spinosyn composition (spinosad) included 85% spinosyn A and 15% spinosyn D in a sugar solution. Stock solutions were typically made 0.1% w/v in acetone and then diluted to lower concentrations. The spinosyn or imidacloprid compositions were then applied to the insect diet, allowed to dry and then infested with the insect larvae.
(§3) The concentrations of the spinosyn composition and the imidacloprid composition were selected across a range to provide data enabling the effective dose (ED) that produces a response in 50% of the first instar larvae (ED50) and the effective dose that produces a response in 90% of the first instar larvae (ED90) to be calculated. After administering the spinosyn composition or the imidacloprid composition, the first instar larvae were visually monitored for mortality. Data were analyzed using Probit analysis to determine the ED50 and the ED90, along with upper and lower 95% limits.

[3] = tested on: 4A4D Drosophila strain (double mutant, lesions in both the Dα1 subunit and the Dβ2 subunit); details: for Fold resistance: 4A4D strain relative to Line 14
Description: as §1, §2, §3

[4] = tested on: Dα1EMS1 Drosophila strain (lesion in the Dα1 nAChR subunit); assay: Dosage mortality testing, first instar larvae, Dα1EMS1 strain; details: for Fold resistance: Dα1EMS1 strain relative to Line 14
Description: as §1, §2, §3

[5] = Dβ2EMS2 strain, first instar larvae, mortality, applied to insect diet, Probit analysis
[6] = 4A4D strain, first instar larvae, mortality, applied to insect diet, Probit analysis
[7] = Dα1EMS1 strain, first instar larvae, mortality, applied to insect diet, Probit analysis

O=[N+]([O-])NC1=NCCN1Cc1ccc(Cl)nc1 [imidacloprid composition, imidacloprid]
ED50 [1]: 0.14 ppm
ED90 [1]: 0.28 ppm
ED50 [2, 5]: 4.04 ppm
ED90 [2, 5]: 8.02 ppm
Fold resistance ([2]; ED50 table): 28.69
Fold resistance ([2]; ED90 table): 28.70
ED50 [3, 6]: 3.78 ppm
ED90 [3, 6]: 7.49 ppm
Fold resistance ([3]; ED50 table): 26.81
Fold resistance ([3]; ED90 table): 26.81
ED50 [4, 7]: 2.91 ppm
ED90 [4, 7]: 5.77 ppm
Fold resistance ([4]; ED50 table): 20.63
Fold resistance ([4]; ED90 table): 20.63
